Among the data in patent publication US10414775B2 (Merck Sharp & Dohme Corp., priority 2016, dated 2019) are IC50 values, retold here.

Structures are written as SMILES. Counter-ions that a name gives are not always drawn.

In the data set the target is T1, Human CYP8B1 (Homo sapiens, UniProt Q9UNU6).
T1 construct: tissue Xenotech; host or cells: human liver microsomes
T1 sequence (Q9UNU6 1-501): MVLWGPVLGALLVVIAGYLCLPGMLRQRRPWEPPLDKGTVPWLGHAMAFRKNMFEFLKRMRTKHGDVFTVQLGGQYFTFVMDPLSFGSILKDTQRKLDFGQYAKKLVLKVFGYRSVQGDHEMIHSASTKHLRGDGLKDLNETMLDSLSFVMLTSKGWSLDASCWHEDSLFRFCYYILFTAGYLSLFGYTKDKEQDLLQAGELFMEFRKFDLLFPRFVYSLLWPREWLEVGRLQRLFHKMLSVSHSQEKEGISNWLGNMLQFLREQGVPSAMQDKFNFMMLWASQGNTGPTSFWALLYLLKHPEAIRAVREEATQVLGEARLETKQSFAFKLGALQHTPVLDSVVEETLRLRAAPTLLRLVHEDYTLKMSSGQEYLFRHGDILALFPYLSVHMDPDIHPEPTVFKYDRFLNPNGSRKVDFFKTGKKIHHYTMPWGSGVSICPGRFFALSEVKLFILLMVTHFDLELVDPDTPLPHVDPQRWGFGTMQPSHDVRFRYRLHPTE
Kind of data set: Human Cyp8B1 Liver Microsome Assay. Format: biochemical. Conditions: human liver microsomes; substrate 7α-hydroxy-4-cholesten-3-one, NADPH; 30 min pre-incubation, 45 min reaction; RapidFire MS readout. The protocol:
Human Cyp8B1 Liver Microsome Assay To a 384 well polypropylene plate (Corning 3656), 250 nl of inhibitor in 100% DMSO (1.25% final DMSO concentration) was pre-plated using an Echo liquid handler (Labcyte Inc.). Human liver microsomes (Xenotech) were diluted in of 0.1 M phosphate buffer, pH 7.4, at a concentration of 65 μg/ml and 15 μL was added to the 384 well plate. The plates were incubated at ambient room temperature for 30 minutes. After pre-incubation with inhibitor, the reaction was initiated by adding 5 μl of substrate solution (4.0 μM 7α-hydroxy-4-cholesten-3-one(Toronto Research Chemicals), 2 mM of NADPH (Sigma), 0.1 M phosphate buffer (pH 7.4). The reaction was carried out for 45 minutes at ambient room temperature and was quenched by the addition of 50 μl of acetonitrile+0.1% vol/vol formic acid (FA)+300 nM 7α-hydroxy-4-cholesten-3-one-d7 (Toronto Research Chemicals). The plates were sealed and centrifuged at 3000 rpm for 5 minutes. Plates were loaded onto the Agilent RapidFire RF300 HTMS system, wherein samples were sipped for 600 ms, and the sip sensor detection signals the diversion of sample from the loop onto a C4 solid phase extraction (SPE) cartridge, where salts are washed off for 2500 ms with a mobile phase of water with 0.1% vol/vol FA at a flow rate of 1.5 ml/min. The column path is switched, and the sample is eluted off the cartridge and flowed into the mass spectrometer for 3000 ms with a mobile phase of acetonitrile and 0.1% vol/vol FA at a flow rate of 1.25 ml/min. The aspirator tip was washed separately with water and acetonitrile between sample aspirations (each for 600 ms) to minimize carryover contamination. Mass spectrometry was carried out using a Sciex API4000 triple quadrupole mass spectrometer (Applied Biosystems, Concord, ON, Canada) equipped with electrospray ionization (ESI) operated in the positive-ion mode. The product 7α, 12α-dihydroxy-4-cholesten-3-one and internal standard 7α-hydroxy-4-cholsten-3-one-d7 were detected using multiple reaction monitoring (MRM) with Q1/Q3 transitions at m/z 417.3 to 381.3 and m/z 408.3 to 390.3, respectively, with a dwell time of 100 ms and a collision energy of 24 V for each transition. The mass spectrometer used an ESI voltage of 5000 V and a source temperature of 650° C. Extracted ion chromatograms for each transition were integrated and processed using the RapidFire Integrator software. The data for each well were normalized by monitoring product conversion with the ratio of AUCproduct/(AUCinternal standard). The data was then fitted to a four parameter logistic fit using ActivityBase Software to calculate an IC50 of the inhibitor.
(In general: Liver microsomes are vesicles of endoplasmic reticulum, rich in cytochrome P450 enzymes.)

One may read the IC50 as the point on the concentration scale where inhibition reaches its midpoint. Read a low IC50 as inhibition by little substance. Turning to `C[C@@H]1CN(c2ccnc3ccc(Cl)cc23)CC[C@@H]1C(=O)N1CCn2c(nnc2C(F)(F)F)C1` (single isomer, unassigned) [Example 11a], the half-maximal inhibitory concentration (IC50) was 3.5 nM.

In the case of `C[C@H]1CN(c2ccnc3ccc(Cl)cc23)CC[C@H]1C(=O)N1CCn2c(nnc2C(F)(F)F)C1` (single isomer, unassigned) [Example 11b], inhibition was half-maximal at 1180 nM (IC50). The figure for `C[C@H](O)c1ccc2c(N3CC[C@H](C(=O)N4CCn5c(nnc5C(F)(F)F)C4)[C@H](C)C3)c(Cl)cnc2c1` (single isomer, unassigned) [Example 44a] is 0.34 nM; for `C[C@@H]1CN(c2c(Cl)cnc3cc([C@@H](C)O)ccc23)CC[C@@H]1C(=O)N1CCn2c(nnc2C(F)(F)F)C1` (single isomer, unassigned) [Example 44b] it is 1.2 nM; for `CCOC(=O)c1cnc2ccc(F)cc2c1N1CC[C@H](C(=O)N2CCn3c(nnc3C(F)(F)F)C2)[C@H](C)C1` [Example 1, ethyl 6-fluoro-4-[(3S,4S)-3-methyl-4-{[3-(trifluoromethyl)-5,6-dihydro[1,2,4]triazolo[4,3-a]pyrazin-7(8H)-yl]carbonyl}piperidin-1-yl]quinoline-3-carboxylate] it is 3680 nM. For `C[C@@H]1CN(c2ccnc3cc(Cl)cnc23)CC[C@@H]1C(=O)N1CCn2c(nnc2C(F)(F)F)C1` [Example 2, ((3S,4S)-1-(7-chloro-1,5-naphthyridin-4-yl)-3-methylpiperidin-4-yl)(3-(trifluoromethyl)-5,6-dihydro-[1,2,4]triazolo[4,3-a]pyrazin-7(8H)-yl)methanone] the value was 18 nM. `COc1ccc2c(N3CC[C@H](C(=O)N4CCn5c(nnc5C(F)(F)F)C4)[C@H](C)C3)c(Cl)cnc2c1` [Example 3, ((3S,4S)-1-(3-chloro-7-methoxyquinolin-4-yl)-3-methylpiperidin-4-yl)(3-(trifluoromethyl)-5,6-dihydro-[1,2,4]triazolo[4,3-a]pyrazin-7(8H)-yl)methanone] showed an IC50 of 0.2 nM.

In the case of `C[C@@H]1CN(c2c(Cl)cnc3cc(F)ccc23)CC[C@@H]1C(=O)N1CCn2c(nnc2C(F)(F)F)C1` [Example 4, ((3S,4S)-1-(3-chloro-7-fluoroquinolin-4-yl)-3-methylpiperidin-4-yl)(3-(trifluoromethyl)-5,6-dihydro-[1,2,4]triazolo[4,3-a]pyrazin-7(8H)-yl)methanone], the IC50 worked out at 0.6 nM.

`C[C@@H]1CN(c2c(C(F)(F)F)cnc3ccccc23)CC[C@@H]1C(=O)N1CCn2c(nnc2C(F)(F)F)C1` [Example 5, ((3S,4S)-3-methyl-1-(3-(trifluoromethyl)quinolin-4-yl)piperidin-4-yl)(3-(trifluoromethyl)-5,6-dihydro-[1,2,4]triazolo[4,3-a]pyrazin-7(8H)-yl)methanone] came in with an IC50 of 1 nM. For `C[C@@H]1CN(c2c(Cl)cnc3c(F)cccc23)CC[C@@H]1C(=O)N1CCn2c(nnc2C(F)(F)F)C1` [Example 6, ((3S,4S)-1-(3-chloro-8-fluoroquinolin-4-yl)-3-methylpiperidin-4-yl)(3-(trifluoromethyl)-5,6-dihydro-[1,2,4]triazolo[4,3-a]pyrazin-7(8H)-yl)methanone] the value was 0.9 nM; for `C[C@@H]1CN(c2c(C(F)F)cnc3c(F)c(Cl)ccc23)CC[C@@H]1C(=O)N1CCn2c(nnc2C(F)(F)F)C1` [Example 7, ((3S,4S)-1-(7-chloro-3-(difluoromethyl)-8-fluoroquinolin-4-yl)-3-methylpiperidin-4-yl)(3-(trifluoromethyl)-5,6-dihydro-[1,2,4]triazolo[4,3-a]pyrazin-7(8H)-yl)methanone], 0.7 nM. The figure for `COc1cnc2c(N3CC[C@H](C(=O)N4CCn5c(nnc5C(F)(F)F)C4)[C@H](C)C3)c(Cl)cnc2c1` [Example 8, ((3S,4S)-1-(3-chloro-7-methoxy-1,5-naphthyridin-4-yl)-3-methylpiperidin-4-yl)(3-(trifluoromethyl)-5,6-dihydro-[1,2,4]triazolo[4,3-a]pyrazin-7(8H)-yl)methanone] is 1.2 nM.

For `COc1ccc2c(N3CC[C@H](C(=O)N4CCn5c(nnc5C(F)(F)F)C4)[C@H](C)C3)c([N+](=O)[O-])cnc2c1` [Example 9, ((3S,4S)-1-(7-methoxy-3-nitroquinolin-4-yl)-3-methylpiperidin-4-yl)(3-(trifluoromethyl)-5,6-dihydro-[1,2,4]triazolo[4,3-a]pyrazin-7(8H)-yl)methanone], the IC50 stood at 0.2 nM. The figure for `CC1CN(c2ccnc3ccc(Cl)cc23)CCC1C(=O)N1CCn2c(nnc2C(F)(F)F)C1` (stereo not drawn) [Example 10, [1-(6-chloroquinolin-4-yl)-3-methylpiperidin-4-yl][3-(trifluoromethyl)-5,6-dihydro[1,2,4]triazolo[4,3-a]pyrazin-7(8H)-yl]methanone] is 8.5 nM. Consider `C[C@@H]1CN(c2ccnc3cc(C(F)(F)F)ccc23)CC[C@@H]1C(=O)N1CCn2c(nnc2C(F)(F)F)C1` [Example 12, {(3S,4S)-3-methyl-1-[7-(trifluoromethyl)quinolin-4-yl]piperidin-4-yl}[3-(trifluoromethyl)-5,6-dihydro[1,2,4]triazolo[4,3-a]pyrazin-7(8H)-yl]methanone], for which the IC50 amounted to 5.2 nM.

Turning to `Cc1cc(N2CC[C@H](C(=O)N3CCn4c(nnc4C(F)(F)F)C3)[C@H](C)C2)c2cc(Cl)ccc2n1` [Example 13, [(3S,4S)-1-(6-chloro-2-methylquinolin-4-yl)-3-methylpiperidin-4-yl][3-(trifluoromethyl)-5,6-dihydro[1,2,4]tria-zolo[4,3-a]pyrazin-7(8H)-yl]methanone], half-maximal inhibition (IC50) required 3040 nM. The figure for `C[C@@H]1CN(c2ccnc3ccc(F)cc23)CC[C@@H]1C(=O)N1CCn2c(nnc2C(F)(F)F)C1` [Example 14, [(3S,4S)-1-(6-fluoroquinolin-4-yl)-3-methylpiperidin-4-yl][3-(trifluoromethyl)-5,6-dihydro[1,2,4]tria-zolo[4,3-a]pyrazin-7(8H)-yl]methanone] is 52 nM. For `Cc1cc(N2CC[C@H](C(=O)N3CCn4c(nnc4C(F)(F)F)C3)[C@H](C)C2)c2cc(F)ccc2n1` [Example 15, [(3S,4S)-1-(6-fluoro-2-methylquinolin-4-yl)-3-methylpiperidin-4-yl][3-(trifluoromethyl)-5,6-dihydro[1,2,4]tria-zolo[4,3-a]pyrazin-7(8H)-yl]methanone] the value was 245 nM; for `Cc1nc2ccc(F)cc2c(N2CC[C@H](C(=O)N3CCn4c(nnc4C(F)(F)F)C3)[C@H](C)C2)c1C` [Example 16, [(3S,4S)-1-(6-fluoro-2,3-dimethylquinolin-4-yl)-3-methylpiperidin-4-yl][3-(trifluoromethyl)-5,6-dihydro[1,2,4]tria-zolo[4,3-a]pyrazin-7(8H)-yl]methanone], 37 nM.

Compound `Cc1cc(N2CC[C@H](C(=O)N3CCn4c(nnc4C(F)(F)F)C3)[C@H](C)C2)c2cc(F)cc(F)c2n1` [Example 17, [(3S,4S)-1-(6,8-difluoro-2-methylquinolin-4-yl)-3-methylpiperidin-4-yl][3-(trifluoromethyl)-5,6-dihydro[1,2,4]tria-zolo[4,3-a]pyrazin-7(8H)-yl]methanone] returned an IC50 of 145 nM. The figure for `Cc1cc(N2CC[C@H](C(=O)N3CCn4c(nnc4C(F)(F)F)C3)[C@H](C)C2)c2ccc(F)c(F)c2n1` [Example 18, 7,8-difluoro-2-methyl-4-[(3S,4S)-3-methyl-4-{[3-(trifluoromethyl)-5,6-dihydro[1,2,4]tria-zolo[4,3-a]pyrazin-7(8H)-yl]carbonyl}piper-idin-1-yl]quinolinium trifluoroacetate] is 385 nM.
